Experimental data as given in paper PMC9319939, “Siccanin Is a Dual-Target Inhibitor of Plasmodium falciparum Mitochondrial Complex II and Complex III” (Pharmaceuticals, 2022).
Where two headings read alike, the source gives them in different places.

Columns and labels:
[1] = target: P. falciparum complex II (Plasmodium falciparum, UniProt Q8I5S5+Q8IJU2); assay: succinate:ubiquinone reductase (SQR) activity, crude mitochondrial fraction, DCIP reduction; assay type: biochemical; details: siccanin 10 μM; read-out: Relative residual activity of SQR
Chain of P. falciparum complex II (Q8IJ66 entry or part of it): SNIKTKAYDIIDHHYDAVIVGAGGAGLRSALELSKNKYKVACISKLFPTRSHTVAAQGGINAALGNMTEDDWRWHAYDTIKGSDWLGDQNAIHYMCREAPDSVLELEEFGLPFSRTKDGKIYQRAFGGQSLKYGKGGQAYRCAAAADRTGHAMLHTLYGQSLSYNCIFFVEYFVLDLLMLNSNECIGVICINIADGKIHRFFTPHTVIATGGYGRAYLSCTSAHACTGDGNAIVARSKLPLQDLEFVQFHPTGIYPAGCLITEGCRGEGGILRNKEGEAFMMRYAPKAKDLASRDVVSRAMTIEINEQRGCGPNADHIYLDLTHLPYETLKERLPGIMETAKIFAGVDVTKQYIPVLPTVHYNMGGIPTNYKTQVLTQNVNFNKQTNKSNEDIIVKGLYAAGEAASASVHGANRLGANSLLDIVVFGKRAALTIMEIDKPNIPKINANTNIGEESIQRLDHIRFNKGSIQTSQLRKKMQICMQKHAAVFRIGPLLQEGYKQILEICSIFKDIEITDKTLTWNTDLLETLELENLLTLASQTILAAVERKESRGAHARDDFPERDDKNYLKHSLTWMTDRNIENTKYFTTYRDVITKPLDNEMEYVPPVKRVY
Chain of P. falciparum complex II (Q8IJU2 entry or part of it): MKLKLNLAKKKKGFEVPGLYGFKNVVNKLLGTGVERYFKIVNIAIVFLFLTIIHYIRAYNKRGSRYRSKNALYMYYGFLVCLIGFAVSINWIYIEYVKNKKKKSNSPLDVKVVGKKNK
Chain of P. falciparum complex II (Q8I5S5 entry or part of it): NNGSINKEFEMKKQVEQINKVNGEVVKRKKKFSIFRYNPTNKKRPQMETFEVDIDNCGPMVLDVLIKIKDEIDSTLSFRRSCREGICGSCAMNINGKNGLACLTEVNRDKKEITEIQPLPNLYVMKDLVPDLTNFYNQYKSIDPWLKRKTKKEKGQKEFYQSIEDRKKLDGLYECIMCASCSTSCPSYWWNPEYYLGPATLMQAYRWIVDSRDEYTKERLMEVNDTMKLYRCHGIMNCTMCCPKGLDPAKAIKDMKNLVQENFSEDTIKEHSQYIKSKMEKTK
Experimental: (§1) A synchronized parasite culture was grown for 64 h and a crude mitochondrial fraction was prepared from trophozoite-stage cells (as confirmed by Giemsa staining). Infected red blood cells were collected by centrifugation at 800× g for 5 min at 4 °C and incubated for 5 min at room temperature with 40 mL of 0.075% (w/v) saponin in AIM buffer (120 mM KCl, 20 mM NaCl, 10 mM PIPES (1,4-piperazinediethanesulfonic acid) buffer [pH 6.7], 1 mM MgCl2, 5 mM glucose). Released parasites were collected by centrifugation at 2780× g for 7 min at 4 °C and washed three times with AIM buffer. […]
(§2) Complex II, DHODH, MQO, NDH2, G3PDH, and dihydroorotate-cytochrome c (DHO-cyt c) reductase activities were measured, as described previously, using a V-660 spectrophotometer (JASCO; Tokyo, Japan). Briefly, complex II activity was measured at 25 °C in a 1 mL reaction mixture containing 45 μM 2,6-dichlorophenolidophenol (DCIP), 100 μM ubiquinone-2 (UQ2), and 2 mM KCN in 50 mM potassium phosphate buffer, pH 8.0. DHODH, MQO, and G3PDH activities were measured at 25 °C in 1 mL of the reaction mixture containing 45 μM DCIP, 100 μM UQ2, and 2 mM KCN in 30 mM Tris-HCl buffer, pH 8.0. […] NDH2 activity was measured at 25 °C in 1 mL of the reaction mixture containing 100 µM UQ1 and 2 mM KCN in 50 mM potassium phosphate buffer, pH 8.0. […]

[2] = system: type-II NADH dehydrogenase (NDH2); assay: NDH2 activity, crude mitochondrial fraction, NADH at 340 nm; assay type: biochemical, Plasmodium falciparum
Experimental: as §1, §2

[3] = system: P. falciparum complex III; assay: DHO-cytochrome c reductase activity (DHODH coupled to complex III); assay type: biochemical; details: ratio mammalian / P. falciparum IC50
Experimental: A synchronized parasite culture was grown for 64 h and a crude mitochondrial fraction was prepared from trophozoite-stage cells (as confirmed by Giemsa staining). Infected red blood cells were collected by centrifugation at 800× g for 5 min at 4 °C and incubated for 5 min at room temperature with 40 mL of 0.075% (w/v) saponin in AIM buffer (120 mM KCl, 20 mM NaCl, 10 mM PIPES (1,4-piperazinediethanesulfonic acid) buffer [pH 6.7], 1 mM MgCl2, 5 mM glucose). Released parasites were collected by centrifugation at 2780× g for 7 min at 4 °C and washed three times with AIM buffer. P. falciparum was suspended in MSE buffer [225 mM mannitol, 75 mM sucrose, 0.1 mM ethylenediaminetetraacetic acid (EDTA), 3 mM Tris-HCl buffer, pH 7.4] containing 1 mM phenylmethylsulphonyl fluoride, and disrupted by nitrogen cavitation at 1200 psi using a 4639 Cell Disruption Bomb (Parr Instrument Company; Moline, IL, USA). The unbroken cells and cell debris were removed by centrifugation at 800× g for 5 min at 4 °C. The supernatant was centrifuged at 5000× g for 20 min at 4 °C. The resulting pellet was suspended in 200–400 μL MSE buffer and used as crude mitochondrial fraction for all enzymatic assays, as described previously.
DHO-cyt c activity was measured at 25 °C in 1 mL of the reaction mixture containing 20 μM cytochrome c and 2 mM KCN in 30 mM Tris-HCl buffer, pH 8.0. The reduction of cytochrome c was monitored at 550 nm after initiation of the reaction by addition of 500 μM dihydroorotate. Various concentrations of siccanin (formulated in DMSO) were added to the reaction mixtures before the initiation of the reactions. In all assays, the final concentration of DMSO was fixed at 0.1% (v/v). IC50 values were calculated using Prism® ver.6.01.

[4] = system: P. falciparum 3D7; assay: Drug sensitivity assay, 72 h, PfLDH-based; assay type: cell-based; details: Plasmodium falciparum
Experimental: The P. falciparum 3D7 strain was cultured, as described previously, in 3% hematocrit type A human red blood cells (RBCs) in RPMI1640 medium (Invitrogen; San Diego, CA, USA) supplemented with 25 mM sodium hydrogen biocarbonate, 10 μg/mL hypoxanthine, 40 μg/mL gentamicin sulfate, and 0.5% (w/v) Albumax II (Invitrogen) (“complete medium”). Cultures were maintained in a MG-70M multi-gas incubator (Taitec) under the conditions of 5% O2, 5% CO2, and 90% N2 at 37 °C. The medium was replaced daily. Parasitemia was measured by thin blood smears stained with Giemsa. In our previous study, we generated mutant P. falciparum strains expressing either disrupted or full-length versions of the flavoprotein (Fp) subunit (encoded by the Pfsdha gene). Both strains were cultured in complete medium at 3% hematocrit supplemented with 5 nM WR99210 (Jacobus Pharmaceuticals; Plainsboro, NJ, USA). The experiments using human RBCs were performed under the guidelines of Research Ethics Committee of the Faculty of Medicine of the University of Tokyo and Institutional Review Board (IRB) of Nagasaki University (Permission nos. 10050 and no. 19, respectively). Human RBCs were obtained from The Japanese Red Cross Society. The synchronization of parasite cultures was performed by treating with 5% (w/v) sorbitol for 10 min [77].
(§3) Synchronized ring-form parasites (0.3% parasitemia) were prepared in complete medium containing different concentration of various compounds (at a fixed final DMSO concentration of 0.1% (v/v)) and distributed to 96-well plates at 100 μL/well. After 72 h of incubation, parasite growth was monitored by the previously described lactate dehydrogenase (PfLDH)-based assay method; plates were read using a SpectraMax® Paradigm spectrophotometer (Molecular Devices, Inc.; San Jose, CA, USA). EC50 values were calculated using Prism® ver.6.01 (GraphPad; San Diego, CA, USA). Values are presented as the means of three independent experiments.

[5] = system: Dd2_DHIQ (ATP4-G358S mutation); assay: Growth inhibition of Dd2_DHIQ (cipargamin-resistant); assay type: cell-based; details: Plasmodium falciparum, read-out: Growth inhibition EC50, DHIQ
Experimental: (§4) P. falciparum 3D7-yDHODH was prepared and maintained as described previously. P. falciparum Dd2, and Dd2-derived mutant strains were kindly provided by David A. Fidock, and maintained at Nagasaki University essentially as described in reference, except without supplementation with WR99210.
as §3

[6] = system: Dd2 and drug-resistant panel strains; assay: Growth inhibition across Dd2 and drug-resistant panel strains; assay type: cell-based; details: Plasmodium falciparum, DD2, read-out: EC50s for growth inhibition, range over strains
Experimental: as §4, §3

[7] = system: P. falciparum (synchronized ring-form parasites); assay: Assessment of parasite survival, Giemsa-stained smears; assay type: cell-based, Plasmodium falciparum; details: 50 µM siccanin; 16, 24, 32, 48 h
Experimental: Synchronized ring-form parasites (2% parasitemia) were prepared in complete medium containing 50 µM siccanin (at a fixed final DMSO concentration of 0.1% (v/v)) and distributed to 24-well plates at 1 mL/well. After incubation for 16, 24, 32, and 48 h, parasitemia was assessed under the microscope using thin blood smears stained with Giemsa.

## Cc1cc(O)c2c(c1)O[C@@]1(C)CC[C@H]3C(C)(C)CCC[C@]34CO[C@@H]2[C@H]41 [Siccanin]
[1]
  remaining activity at 10 µM: 2.7 ± 6.5%
[2]; 10 µM
  Effect on NDH2 activity: did not inhibit
[2]; siccanin 10 μM
  Relative residual activity of NDH2: 101.8 ± 8.1%
[3]
  Selectivity, Complex III: >60
[4]; 3D7, read-out: Growth IC50, parent (wild-type) 3D7
  IC50: 6.1 ± 1 µM
[4]; 3D7, Figure 6a, read-out: Growth inhibition EC50, 3D7 (parent)
  EC50: 11.7 µM
[4]; 3D7, 72 h, 5 mM fumarate, read-out: Growth IC50 in presence of fumarate
  IC50: 11.5 ± 1.09 µM
[4]; 3D7, 72 h, 5 mM succinate, read-out: Growth IC50 in presence of succinate
  IC50: 10.8 ± 2.16 µM
[4]; 3D7, 72 h, no succinate or fumarate added, read-out: Growth IC50, P. falciparum
  IC50: 8.4 µM
[5]
  EC50: 16.4 µM
[6]
  EC50: 12.4 to 18.7 µM
[7]
  Live parasites under the microscope: could not detect live parasites
